This is an account of results in patent US20240190876A1, “Tricyclic Urea Compounds As JAK2 V617F Inhibitors” (Incyte Corporation, priority 2022, published 2024).

In data set [1] the target is KIT (Homo sapiens, UniProt P10721). Nature of the data set: KIT Enzymatic Assay. The following applies: HTRF kinase assay, 1 mM ATP. The format is biochemical. How it is done:
(§1) The kinase assays were carried out at room temperature in assay buffer (HEPES 50 mM, pH 7.0, NaN3 0.02%, BSA 0.01%, Orthovanadate 0.1 mM, DTT 1 mM, MgCl2 10 mM) in a final volume of 10 μL. Testing compounds were prepared by serial dilution in DMSO and transferred to the plate wells by ECHO liquid handler (Labcyte) with 0.5% DMSO in the final assay. […]. Reactions were initiated by the addition of 5 μL ATP in assay buffer. The final 10 μL kinase reaction consists of 0.12 nM KIT, 1 mM ATP, 500 nM TK Substrate-biotin and SEB reagent 62.5 nM in assay buffer. […] The plates were then sealed and centrifuged at 1800 rpm for 2 minutes. After 60 minutes incubation at room temperature, the product activity was determined by measuring the fluorescence at 620 nm and 665 nm on Pherastar microplate reader (BMG Labtech). A ratio is calculated (665/620 nm) for each well. Wells with DMSO only were served as the positive controls and wells containing no ATP were used as negative controls. IC50 determination was performed by fitting the curve of percent control activity versus the log of the compound concentration using the GraphPad Prism 7.0 software.

In data set [2] the test system is KIT. Briefly: KIT Enzymatic Assay. The format is biochemical. The following applies: ratio KIT IC50 / JH2 V617F binding IC50. As for the experimental part: as §1
Data set [3] in a line: In Vitro Intrinsic Clearance. It is filed as in vitro ADME. The note with it: human liver microsomes, 1 μM compound, NADPH, scaled to human. As for the experimental part: For in vitro metabolic stability experiments, test compounds were incubated with human liver microsomes at 37° C. The incubation mixture contained test compounds (1 μM), NADPH (2 mM), and human liver microsomes ([…]) in 100 mM phosphate buffer (pH 7.4). The mixture was pre-incubated for 2 min at 37° C. before the addition of NADPH. Reactions were commenced upon the addition of NADPH and quenched with ice-cold methanol at 0, 10, 20, and 30 min. Terminated incubation mixtures were analyzed using LC-MS/MS system. The analytical system consisted of a Shimadzu LC-30AD binary pump system and SIL-30AC autosampler (Shimadzu Scientific Instruments, Columbia, MD) coupled with a Sciex Triple Quad 6500+mass spectrometer from Applied Biosystems (Foster City, CA). […] Mobile phase A consisted of 0.1% formic acid in water, and mobile phase B consisted of 0.1% formic acid in acetonirile. The total LC-MS/MS runtime was 2.75 minutes with a flow rate of 0.75 mL/min. Peak area integrations and peak area ratio calculations were performed using Analyst software (version 1.6.3) from Applied Biosystems.
The in vitro intrinsic clearance, CLint, in vitro, was calculated from the t1/2 of test compound disappearance as CLint, in vitro=(0.693/t1/2)×(1/Cprotein), where Cprotein is the protein concentration during the incubation, and t1/2 was determined by the slope (k) of the log-linear regression analysis of the concentration versus time profiles; thus, t1/2ln2/k. The CLint, in vitro values were scaled to the in vivo values for human by using physiologically based scaling factors, hepatic microsomal protein concentrations (45 mg protein/g liver), and liver weights (21 g/kg body weight). The equation CLint=CLint, in vitro×(mg protein/g liver weight)×(g liver weight/kg body weight) was used. The in vivo hepatic clearance (CLH) was then calculated by using CLint and hepatic blood flow, Q (20 mL·min^−1kg^−1 in humans) in the well-stirred liver model disregarding all binding from CLH (Q×CLint)/(Q+CLint). The hepatic extraction ratio was calculated as CLH divided by Q.
(In general: Liver microsomes are a subcellular fraction often used to study metabolism.)

KIT (Homo sapiens, UniProt P10721), sequence (P10721 26-976, species assumed): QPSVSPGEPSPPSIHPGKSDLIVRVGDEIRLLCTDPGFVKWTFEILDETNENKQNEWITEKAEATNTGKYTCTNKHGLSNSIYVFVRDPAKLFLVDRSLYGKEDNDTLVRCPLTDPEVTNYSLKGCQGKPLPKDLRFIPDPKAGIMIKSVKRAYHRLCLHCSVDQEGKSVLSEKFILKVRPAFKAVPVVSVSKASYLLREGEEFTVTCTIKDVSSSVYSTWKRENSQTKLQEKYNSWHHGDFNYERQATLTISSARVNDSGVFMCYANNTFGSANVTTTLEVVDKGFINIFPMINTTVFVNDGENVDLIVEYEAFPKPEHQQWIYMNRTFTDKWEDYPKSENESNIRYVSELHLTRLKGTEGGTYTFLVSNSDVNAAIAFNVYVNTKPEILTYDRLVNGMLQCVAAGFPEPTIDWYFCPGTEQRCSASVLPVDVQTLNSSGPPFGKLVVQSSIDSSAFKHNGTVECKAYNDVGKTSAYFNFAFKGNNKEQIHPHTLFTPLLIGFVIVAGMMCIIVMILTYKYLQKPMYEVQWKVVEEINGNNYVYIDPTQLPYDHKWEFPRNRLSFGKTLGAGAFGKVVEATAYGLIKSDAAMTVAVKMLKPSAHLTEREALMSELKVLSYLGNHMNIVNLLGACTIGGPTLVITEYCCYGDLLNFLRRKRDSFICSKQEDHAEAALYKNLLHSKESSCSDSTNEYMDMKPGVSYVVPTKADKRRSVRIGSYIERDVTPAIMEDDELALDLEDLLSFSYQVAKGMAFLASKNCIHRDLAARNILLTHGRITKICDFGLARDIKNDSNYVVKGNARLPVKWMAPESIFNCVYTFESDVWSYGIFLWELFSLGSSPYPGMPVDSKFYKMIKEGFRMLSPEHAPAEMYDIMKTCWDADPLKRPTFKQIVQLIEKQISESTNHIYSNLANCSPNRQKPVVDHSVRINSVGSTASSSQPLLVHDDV

What is called IC50 is the concentration at which inhibition is half-maximal. A low value points to greater potency. `COc1ccc(-c2c(-c3cn(C)nc3OC)[nH]c3ncc4c(c23)n([C@H]2CC[C@@](C)(NC(=O)C3CC3)CC2)c(=O)n4C)cc1` [Example 1, N-((1s,4s)-4-(7-(3-Methoxy-1-methyl-1H-pyrazol-4-yl)-8-(4-methoxyphenyl)-3-methyl-2-oxo-3,6-dihydroimidazo[4,5-d]pyrrolo[2,3-b]pyridin-1(2H)-yl)-1-methylcyclohexyl)cyclopropanecarboxamide] had an IC50 in data set [1] of more than 2500 nM. Besides, the “Selectivity KIT/JH2 V617F” value in data set [2] is given as “****** (****** refers to selectivity of >12500-fold)”. The h-IntCL result in data set [3] was “‡ (‡ refers to h-IntCL of <0.7 L/h/kg)”.

In data set [1], `[2H]C([2H])([2H])n1ncc2cc(-c3c(-c4cn(C)nc4OC)[nH]c4ncc5c(c34)n([C@H]3CC[C@@](C)(NC(=O)C4CC4)CC3)c(=O)n5C)ccc21` [Example 2, N-((1s,4s)-4-(7-(3-Methoxy-1-methyl-1H-pyrazol-4-yl)-3-methyl-8-(1-(methyl-d3)-1H-indazol-5-yl)-2-oxo-3,6-dihydroimidazo[4,5-d]pyrrolo[2,3-b]pyridin-1(2H)-yl)-1-methylcyclohexyl)cyclopropanecarboxamide] showed an IC50 of more than 2500 nM. Further, the “Selectivity KIT/JH2 V617F” value in data set [2] is reported as “****** (****** refers to selectivity of >12500-fold)”. Further, the h-IntCL result in data set [3] was “‡ (‡ refers to h-IntCL of <0.7 L/h/kg)”.

`[2H]C([2H])([2H])n1cc(-c2[nH]c3ncc4c(c3c2-c2ccc(OC)cc2)n([C@H]2CC[C@@](C)(NC(=O)C3CC3)CC2)c(=O)n4C)c(F)n1` [Example 3, N-((1s,4s)-4-(7-(3-fluoro-1-(methyl-d3)-1H-pyrazol-4-yl)-8-(4-methoxyphenyl)-3-methyl-2-oxo-3,6-dihydroimidazo[4,5-d]pyrrolo[2,3-b]pyridin-1(2H)-yl)-1-methylcyclohexyl)cyclopropanecarboxamide] yielded an IC50 in data set [1] of 250 to 1250 nM. The “Selectivity KIT/JH2 V617F” value in data set [2] is “**** (**** refers to selectivity of >1750-fold to ≤5000-fold)”. Besides, in data set [3], the h-IntCL result is “‡ ‡ (‡ ‡ refers to h-IntCL of ≥0.7 L/h/kg to ≤1 L/h/kg)”.

As for `[2H]C([2H])([2H])n1cc(-c2[nH]c3ncc4c(c3c2-c2ccc3c(cnn3C([2H])([2H])[2H])c2)n([C@H]2CC[C@@](C)(NC(=O)C3CC3)CC2)c(=O)n4C)c(F)n1` [Example 4, N-((1s,4s)-4-(7-(3-fluoro-1-(methyl-d3)-1H-pyrazol-4-yl)-3-methyl-8-(1-(methyl-d3)-1H-indazol-5-yl)-2-oxo-3,6-dihydroimidazo[4,5-d]pyrrolo[2,3-b]pyridin-1(2H)-yl)-1-methylcyclohexyl)cyclopropanecarboxamide], the half-maximal inhibitory concentration (IC50) in data set [1] was in the range of 250 to 1250 nM. The “Selectivity KIT/JH2 V617F” value in data set [2] is “**** (**** refers to selectivity of >1750-fold to ≤5000-fold)”. Also, in data set [3], the h-IntCL result is recorded as “‡ (‡ refers to h-IntCL of <0.7 L/h/kg)”.

In turn, `[2H]C([2H])([2H])n1ncc2cc(-c3c(-c4cn(CC)nc4F)[nH]c4ncc5c(c34)n([C@H]3CC[C@@](C)(NC(=O)C4CC4)CC3)c(=O)n5C)ccc21` [Example 5, N-((1s,4s)-4-(7-(1-Ethyl-3-fluoro-1H-pyrazol-4-yl)-3-methyl-8-(1-(methyl-d3)-1H-indazol-5-yl)-2-oxo-3,6-dihydroimidazo[4,5-d]pyrrolo[2,3-b]pyridin-1(2H)-yl)-1-methylcyclohexyl)cyclopropanecarboxamide] returned an IC50 in data set [1] of 250 to 1250 nM. Also, in data set [2], the “Selectivity KIT/JH2 V617F” value is “**** (**** refers to selectivity of >1750-fold to ≤5000-fold)”. Further, the h-IntCL entry in data set [3] is given as “‡ (‡ refers to h-IntCL of <0.7 L/h/kg)”.

Molecule `[2H]C([2H])([2H])n1cc(-c2[nH]c3ncc4c(c3c2-c2ccc(OC)cc2)n([C@H]2CC[C@@](C)(NC(=O)[C@H]3C[C@H]3F)CC2)c(=O)n4C([2H])([2H])[2H])c(F)n1` [Example 6, (1R,2R)-2-Fluoro-N-((1s,4S)-4-(7-(3-fluoro-1-(methyl-d3)-1H-pyrazol-4-yl)-8-(4-methoxyphenyl)-3-(methyl-d3)-2-oxo-3,6-dihydroimidazo[4,5-d]pyrrolo[2,3-b]pyridin-1(2H)-yl)-1-methylcyclohexyl)cyclopropane-1-carboxamide] displayed an IC50 in data set [1] of 250 to 1250 nM. Moreover, in data set [2], the “Selectivity KIT/JH2 V617F” value is given as “***** (***** refers to selectivity of >5000-fold to ≤12500-fold)”. The h-IntCL entry in data set [3] is “‡ (‡ refers to h-IntCL of <0.7 L/h/kg)”.
